Experiments:
[1] = target: T1, Phosphatidylinositol 4,5-bisphosphate 3-kinase catalytic subunit beta isoform (Homo sapiens, UniProt P42338); experiment: Inhibition of PI3Kbeta (unknown origin) incubated for 60 mins by kinase-glo luminescence assay
Target sequence in this assay (P42338 whole entry, canonical isoform): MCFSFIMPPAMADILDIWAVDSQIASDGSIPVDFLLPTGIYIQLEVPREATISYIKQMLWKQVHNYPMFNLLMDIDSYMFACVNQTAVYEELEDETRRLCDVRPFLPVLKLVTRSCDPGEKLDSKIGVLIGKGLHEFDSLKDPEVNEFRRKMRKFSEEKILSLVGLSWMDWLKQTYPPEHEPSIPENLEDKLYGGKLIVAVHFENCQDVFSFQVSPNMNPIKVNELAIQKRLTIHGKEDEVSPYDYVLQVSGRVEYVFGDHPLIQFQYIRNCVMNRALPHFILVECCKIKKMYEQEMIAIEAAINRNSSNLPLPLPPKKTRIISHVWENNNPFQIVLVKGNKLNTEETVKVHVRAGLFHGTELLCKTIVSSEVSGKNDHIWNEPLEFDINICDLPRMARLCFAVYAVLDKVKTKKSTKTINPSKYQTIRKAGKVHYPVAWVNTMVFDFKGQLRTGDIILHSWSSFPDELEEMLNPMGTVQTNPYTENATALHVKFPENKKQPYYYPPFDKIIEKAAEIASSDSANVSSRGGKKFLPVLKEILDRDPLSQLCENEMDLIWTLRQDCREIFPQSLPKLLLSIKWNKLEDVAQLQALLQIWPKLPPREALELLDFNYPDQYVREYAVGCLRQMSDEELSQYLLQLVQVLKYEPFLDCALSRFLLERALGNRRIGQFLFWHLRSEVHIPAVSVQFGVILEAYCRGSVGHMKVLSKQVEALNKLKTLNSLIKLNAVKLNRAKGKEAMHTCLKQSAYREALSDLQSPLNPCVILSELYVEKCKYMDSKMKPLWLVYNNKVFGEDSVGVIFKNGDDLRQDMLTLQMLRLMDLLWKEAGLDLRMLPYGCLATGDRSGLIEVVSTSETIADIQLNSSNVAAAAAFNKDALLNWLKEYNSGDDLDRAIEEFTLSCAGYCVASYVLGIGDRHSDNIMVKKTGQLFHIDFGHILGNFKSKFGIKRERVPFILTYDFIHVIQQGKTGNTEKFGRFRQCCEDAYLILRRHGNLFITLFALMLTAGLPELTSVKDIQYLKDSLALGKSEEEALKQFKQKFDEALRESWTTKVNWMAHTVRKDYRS

[2] = target: T2, Phosphatidylinositol 4,5-bisphosphate 3-kinase catalytic subunit alpha isoform (Homo sapiens, UniProt P42336); experiment: Inhibition of PI3Kalpha (unknown origin) at 10 uM incubated for 60 mins by kinase-glo luminescence assay
[3] = Cytotoxicity against human Hs 578T cells assessed as cell growth inhibition at 10 uM after 48 hrs by SRB assay relative to control; type: functional; details: read-out: GI
Homo sapiens = species: Homo sapiens; experiment: Selectivity ratio of IC50 for PI3Kbeta (unknown origin) to IC50 for human DNA-PK
[4] = target: T2, Phosphatidylinositol 4,5-bisphosphate 3-kinase catalytic subunit alpha isoform; experiment: Inhibition of PI3Kalpha (unknown origin) incubated for 60 mins by kinase-glo luminescence assay
[5] = target: T1, Phosphatidylinositol 4,5-bisphosphate 3-kinase catalytic subunit beta isoform; experiment: Inhibition of PI3Kbeta (unknown origin) at 10 uM incubated for 60 mins by kinase-glo luminescence assay
Target sequence in this assay (P42338 whole entry, looked up, canonical isoform): as the sequence (P42338 whole entry, canonical isoform) above

[6] = target: T3, Phosphatidylinositol 4,5-bisphosphate 3-kinase catalytic subunit delta isoform (Homo sapiens) (UniProt O00329); experiment: Inhibition of PI3Kdelta (unknown origin) at 10 uM incubated for 60 mins by kinase-glo luminescence assay
T3 sequence (whole entry): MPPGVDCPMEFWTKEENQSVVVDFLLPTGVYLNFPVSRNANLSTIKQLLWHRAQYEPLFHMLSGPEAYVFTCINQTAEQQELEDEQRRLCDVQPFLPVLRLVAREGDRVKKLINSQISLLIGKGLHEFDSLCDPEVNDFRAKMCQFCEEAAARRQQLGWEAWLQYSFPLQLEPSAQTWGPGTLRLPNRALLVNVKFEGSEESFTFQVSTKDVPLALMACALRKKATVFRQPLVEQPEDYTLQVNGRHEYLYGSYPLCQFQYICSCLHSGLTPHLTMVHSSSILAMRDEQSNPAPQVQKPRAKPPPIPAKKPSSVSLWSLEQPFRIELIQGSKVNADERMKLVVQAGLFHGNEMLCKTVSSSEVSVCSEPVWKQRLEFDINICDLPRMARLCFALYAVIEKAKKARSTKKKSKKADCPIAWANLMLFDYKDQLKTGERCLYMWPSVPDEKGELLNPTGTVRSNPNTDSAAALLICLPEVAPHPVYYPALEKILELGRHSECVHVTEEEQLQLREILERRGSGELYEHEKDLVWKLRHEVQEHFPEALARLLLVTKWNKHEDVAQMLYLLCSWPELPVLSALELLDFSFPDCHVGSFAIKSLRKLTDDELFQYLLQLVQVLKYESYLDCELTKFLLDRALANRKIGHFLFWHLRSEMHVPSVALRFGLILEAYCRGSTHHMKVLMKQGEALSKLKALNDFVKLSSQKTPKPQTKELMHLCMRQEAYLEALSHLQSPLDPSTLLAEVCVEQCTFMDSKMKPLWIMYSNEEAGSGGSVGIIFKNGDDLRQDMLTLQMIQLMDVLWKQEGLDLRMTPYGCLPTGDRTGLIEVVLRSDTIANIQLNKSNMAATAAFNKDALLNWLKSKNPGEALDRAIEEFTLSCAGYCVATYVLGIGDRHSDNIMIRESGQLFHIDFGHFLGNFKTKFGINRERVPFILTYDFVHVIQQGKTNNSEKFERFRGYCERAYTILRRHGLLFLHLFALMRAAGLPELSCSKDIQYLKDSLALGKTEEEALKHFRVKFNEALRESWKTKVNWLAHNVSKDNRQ

[7] = target: DNA-dependent protein kinase catalytic subunit (Homo sapiens, UniProt P78527); experiment: Inhibition of human DNA-PK using EPPLSQEAFADLWKK as substrate at 10 uM by HTRF assay

T2 sequence (P42336 whole entry, canonical isoform): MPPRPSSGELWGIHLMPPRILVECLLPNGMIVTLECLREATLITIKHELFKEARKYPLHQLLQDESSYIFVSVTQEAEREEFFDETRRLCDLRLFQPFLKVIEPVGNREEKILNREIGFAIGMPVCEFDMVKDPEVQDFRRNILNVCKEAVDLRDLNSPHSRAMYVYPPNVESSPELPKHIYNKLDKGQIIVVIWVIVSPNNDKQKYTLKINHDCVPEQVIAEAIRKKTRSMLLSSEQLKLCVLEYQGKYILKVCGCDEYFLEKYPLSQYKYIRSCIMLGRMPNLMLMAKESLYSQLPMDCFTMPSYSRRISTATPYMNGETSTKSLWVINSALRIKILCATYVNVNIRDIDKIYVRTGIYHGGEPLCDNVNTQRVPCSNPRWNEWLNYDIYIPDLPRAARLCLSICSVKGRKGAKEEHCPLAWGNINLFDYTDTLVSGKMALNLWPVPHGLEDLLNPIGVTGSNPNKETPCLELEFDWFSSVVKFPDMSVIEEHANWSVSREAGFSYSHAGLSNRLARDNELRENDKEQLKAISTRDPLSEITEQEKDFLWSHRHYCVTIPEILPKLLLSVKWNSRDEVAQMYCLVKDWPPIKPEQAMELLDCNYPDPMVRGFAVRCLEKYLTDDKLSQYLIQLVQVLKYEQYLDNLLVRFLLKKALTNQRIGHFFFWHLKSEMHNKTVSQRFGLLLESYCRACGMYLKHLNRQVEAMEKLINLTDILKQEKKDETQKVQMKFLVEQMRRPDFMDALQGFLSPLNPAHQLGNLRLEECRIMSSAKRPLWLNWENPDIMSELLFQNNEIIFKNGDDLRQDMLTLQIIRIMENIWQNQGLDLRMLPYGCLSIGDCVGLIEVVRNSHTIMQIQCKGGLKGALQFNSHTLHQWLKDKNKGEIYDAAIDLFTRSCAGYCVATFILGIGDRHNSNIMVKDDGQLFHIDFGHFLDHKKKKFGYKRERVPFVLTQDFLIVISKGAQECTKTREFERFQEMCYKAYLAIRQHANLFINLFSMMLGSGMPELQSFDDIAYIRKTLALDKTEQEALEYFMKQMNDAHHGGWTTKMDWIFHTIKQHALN

O=c1nc(N2CCOCC2)oc2c(-c3cccc4c3oc3ccccc34)cccc12
IC50 [1]: 6.9 µM
inhibition [2]: 26%
inhibition of growth at 10 µM [3]: 14.6%

O=c1nc(N2CCOCC2)oc2c(-c3cccc4ccccc34)cccc12
Ratio IC50 (Homo sapiens): 8
IC50 [1]: 5 µM
inhibition [2]: 34%
inhibition of growth at 10 µM [3]: 16.2%

O=c1nc(N2CCOCC2)oc2c(-c3ccsc3)cccc12
IC50 [1]: 3.4 µM
IC50 [4]: 3 µM
inhibition of growth at 10 µM [3]: 9.35%

NC(=O)c1ccc(-c2cccc3c(=O)nc(N4CCOCC4)oc23)cc1
inhibition [5]: 13%
IC50 [4]: > 10 µM
inhibition of growth at 10 µM [3]: 2.8%

O=c1nc(N2CCOCC2)oc2c(-c3cccs3)cccc12
inhibition [5]: 43%
IC50 [4]: 3.3 µM
inhibition of growth at 10 µM [3]: 7.89%

O=c1nc(N2CCOCC2)oc2ccc(-c3cccc4c3sc3ccccc34)cc12
inhibition [6]: 0%
inhibition [2]: 0%
inhibition [7]: 8%
inhibition [5]: 21%
inhibition of growth at 10 µM [3]: 1.62%

O=c1nc(N2CCOCC2)oc2c(-c3cccc4c3sc3ccccc34)cccc12
Ratio IC50 (Homo sapiens): 170
IC50 [1]: 5.8 µM
inhibition [2]: 25%
inhibition of growth at 10 µM [3]: 24.8%

COc1ccc(-c2cccc3c(=O)nc(N4CCOCC4)oc23)cc1
inhibition [5]: 22%
IC50 [4]: 2.8 µM
inhibition of growth at 10 µM [3]: 11.1%

From ChEMBL document CHEMBL3763148, “Synthesis, structure elucidation, DNA-PK and PI3K and anti-cancer activity of 8- and 6-aryl-substituted-1-3-benzoxazines” (Eur J Med Chem, 2016)
